What was measured:
[1] = biological target: T1, recombinant human SLC38A9 (Homo sapiens, UniProt Q8NBW4); experiment: inhibition of [3H]-glutamine uptake in SLC38A9 proteoliposomes; assay type: biochemical; settings: for competition for glutamine transport (inhibition of [3H]-glutamine uptake): added together with 10 μM [3H]-glutamine, transport at 60 min, MeAIB 1 mM, FIG. 3D, FIG. 10B; for transport capacity of SLC38A9 for amino acids (transport preference): inferred from binding preference, FIG. 3d; for binding capacity of SLC38A9 for amino acids (binding preference): ranking read from FIG. 3d
T1 construct: made in house; host or cells: E. coli Lemo21(DE3)pLysS
T1 sequence (Q8NBW4 1-561): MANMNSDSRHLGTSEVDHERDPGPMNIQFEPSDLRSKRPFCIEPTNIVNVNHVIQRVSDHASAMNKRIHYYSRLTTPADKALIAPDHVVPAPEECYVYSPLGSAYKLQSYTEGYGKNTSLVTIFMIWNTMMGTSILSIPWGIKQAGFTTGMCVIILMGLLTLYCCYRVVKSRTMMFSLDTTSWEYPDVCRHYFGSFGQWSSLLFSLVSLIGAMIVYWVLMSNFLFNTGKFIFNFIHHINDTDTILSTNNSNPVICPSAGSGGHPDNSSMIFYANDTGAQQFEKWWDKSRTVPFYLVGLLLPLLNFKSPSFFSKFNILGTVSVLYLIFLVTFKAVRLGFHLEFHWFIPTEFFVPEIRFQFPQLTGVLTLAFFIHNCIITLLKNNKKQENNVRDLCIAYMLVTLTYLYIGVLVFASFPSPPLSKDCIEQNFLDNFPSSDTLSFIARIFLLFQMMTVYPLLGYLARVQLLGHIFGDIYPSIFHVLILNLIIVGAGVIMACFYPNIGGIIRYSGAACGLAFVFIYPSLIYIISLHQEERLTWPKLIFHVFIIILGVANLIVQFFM
Procedure: (§1) a, Orientation of SLC38A9 in proteoliposomes. After purification on Ni-chelating chromatography His-SLC38A9 was incubated overnight at 37° C. in absence or in presence of 1 U thrombin. Immunoblot using anti-His or anti-SLC38A9 antibody. b, Proteoliposomes reconstituted with SLC38A9 were centrifuged, resuspended in isosmotic buffer, incubated overnight at 37° C. with 1 U thrombin, solubilized with SDS Immunoblot using anti-His or anti-SLC38A9 antibody. c, Time course of glutamine uptake by SLC38A9 in proteoliposomes reconstituted with purified SLC38A9 or with control empty vector protein. The uptake of 10 μM [^3H]-glutamine was measured at different time intervals. Transport was stopped as described in Materials and Methods. Values represent means of specific transport ±s.d. from 8 different experiments. Significance was estimated by Student's t test (*P<0.01 or **P<0.001). d, Inhibition of the [^3H]-glutamine uptake in proteoliposomes. The indicated amino acids were added together with 10 μM [^3H]-glutamine Transport was measured at 60 min Values represent means of percent residual activity with respect to control (without added inhibitor) ±s.d. from 3 independent experiments. Significance was estimated by Student's t test (*P<0.01 or **P<0.001). e, Time course of glutamine efflux from proteoliposomes reconstituted with purified SLC38A9. Proteoliposomes were incubated with external 10 μM [^3H]-glutamine After 120 min the residual external radioactivity was removed by gel-filtration and the time course of [^3H]-glutamine efflux was measured as for the uptake (see FIG. 3 c). Values represent means of specific transport ±s.d. from 3 different experiments. f and g. HEK293T cells were transfected with the indicated tagged RAGA (0 or RAGB (g) and RAGC constructs or empty vector (−). Anti-HA immunoprecipitates and cell extracts were treated with PNGase and analysed by immunoblot with the indicated antibodies. Mutations are the following: RAGA: Q66L and T21N; RAGB: Q99L and T54N; RAGC: S75N and Q120N
a, Purification of SLC38A9. Lanes represent empty vector control and SLC38A9 expressed in E. coli and purified on Ni-chelating chromatography Immunoblot of the same fractions using anti-His antibody or anti-SLC38A9 are shown. b, Inhibition of the [^3H]-glutamine uptake in proteoliposomes. 1 mM MeAIB (α-(methylamino)isobutyric acid) was added together with 10 μM [^3H]-glutamine Transport was measured at 60 min. Values represent means of percent residual activity with respect to control (without added inhibitor) ±s.d. from 3 independent experiments. Significance was estimated by Student's t test (*P<0.01 or **P<0.001). c, Uptake of the indicated [3H]-labelled amino acids (10 μM) by SLC38A9 in proteoliposomes measured at 60 min. Values represent means of percent in respect to glutamine transport measured in the same experiment ±s.d. from three independent experiments. Significance was estimated by Student's t test (*P<0.01 or **P<0.001). d, Time course of glutamine uptake by SLC38A9 in proteoliposomes reconstituted with the purified protein fraction. The uptake of 10 μM [^3H]-glutamine was measured at different time intervals, in the presence of the indicated intraliposomal sodium concentrations. Transport was stopped as described in Materials and Methods and calculated by subtracting the radioactivity associated to proteoliposomes reconstituted with the empty vector fraction. Values represent means of specific transport ±s.d. from 3 different experiments. e, Effect of pH on the reconstituted SLC38A9. Reconstitution was performed as described in Materials and Methods except that 20 mM Hepes/Tris at the indicated pH was used. Transport was started by adding 10 μM [^3H]-glutamine in 20 mM Hepes/Tris buffer at the indicated pH to proteoliposomes and stopped at 30 min. Results are means of specific transport rate ±s.d. from 3 different experiments f-g HEK293T cells were starved in medium without amino acids and serum for the indicated times. […]

[2] = biological target: T1, recombinant human SLC38A9; experiment: uptake and efflux of [3H]-labelled amino acids by SLC38A9 in proteoliposomes; assay type: biochemical; settings: for direct transport of [3H]-labelled amino acid by SLC38A9: 10 μM labelled amino acid, 60 min, relative to glutamine transport, FIG. 10C
Procedure: as §1, with “Values represent means of specific transport ±s.d. from 3 different experiments. f and g.” left out
a, Purification of SLC38A9. […] 1 mM MeAIB (α-(methylamino)isobutyric acid) was added together with 10 μM [^3H]-glutamine Transport was measured at 60 min. […] Significance was estimated by Student's t test (*P<0.01 or **P<0.001). c, Uptake of the indicated [3H]-labelled amino acids (10 μM) by SLC38A9 in proteoliposomes measured at 60 min. Values represent means of percent in respect to glutamine transport measured in the same experiment ±s.d. from three independent experiments. […] The uptake of 10 μM [^3H]-glutamine was measured at different time intervals, in the presence of the indicated intraliposomal sodium concentrations. Transport was stopped as described in Materials and Methods and calculated by subtracting the radioactivity associated to proteoliposomes reconstituted with the empty vector fraction. […]

HEK293T cells [3] = experiment: cell size measurement (nucleus diameter, automated microscopy); assay type: cell-based, human; settings: shRNA knockdown vs shGFP, nucleus diameter as proxy, FIG. 5C
Procedure: (§2) a, Table of SLCs belonging to amino acid transporter families robustly expressed in HEK293 and K562 cells as monitored by RNAseq. SLC members of amino acid transporter-containing families^16 and expressed (FPKM>0.5) in both cell lines were ranked according to their expression level. […] Sparse and interphase cells were selected using image analysis and machine learning, and nucleus diameter (μm) was used as robust proxy for cell size^33. […] 10^5 cells were seeded and counted every 24 h. Mean values ±s.d. from triplicates e. HEK293 Flp-In TREx cells inducibly expressing SLC38A9 were treated or not with doxycycline (Dox) for 24 h. Where indicated, cell lysates were treated with PNGase (1 hour, 37° C.) and analysed by immunoblot (IB)
Images were taken by automated microscopy using the PerkinElmer Operetta with 20× magnification in confocal mode. Images were analysed using CellProfiler (www at cellprofiler.org), CellClassifier (http at www.pelkmanslab.org/?page_id=63), Population Context measurement code (https at www.pelkmanslab.org/?page_id=1150) and custom Matlab code written specifically for this study. […] We used the typical nucleus diameter (i.e. the diameter of a circle with the same area as that measured for each nucleus) as a robust proxy for cell size^6. […]

HEK293T cells [4] = experiment: cell proliferation measurement (cell counting every 24 h); assay type: cell-based, human; settings: shRNA knockdown vs shGFP, FIG. 5D
Procedure: as §2

mTORC1 [5] = experiment: amino acid-induced mTORC1 activation in HEK293T (immunoblot of phosphorylated S6 kinase, S6, ULK1); assay type: cell-based, human; settings: lentivirus-encoded shRNA vs shGFP, starved 50 min, amino acids 10 or 20 min, FIG. 4A
Procedure: (§3) After 72 h, cells were treated as in a.d, HeLa were transfected with the indicated siRNA. After 72 h, cells were starved for 50 min in medium without amino acids and serum and then stimulated with amino acids and insulin (1 uM). Cell lysates were analysed by immunoblot with antibodies against phosphorylated threonine 389 S6 kinase, phosphorylated S6 and total S6 kinase e, Model of Sentor/SLC38A9 as part of the lysosomal amino acid-sensing machinery
[…]. HEK293T cells were co-transfected with packaging plasmids and the shRNA-encoding plasmids. Cells were washed 16 h after transfection. Virus-containing supernatants were collected 24 h after washing, filtered and used for infection. After infection, HEK293T cells were selected with puromycin (4 μg/ml). For siRNA-mediated knockdown, HEK293T cells were transfected with HiPerfect (Qiagen) with 60 nM of siRNA pool. After 72 h cells were subjected to amino acid stimulation as described. ON-TARGETplus SMARTpool against SLC38A9 (L-007337-02-0005, Target sequences: […] (SEQ ID NO: 77), […] (SEQ ID NO: 78), […] (SEQ ID NO: 79), […] (SEQ ID NO: 80)), LAMTOR1 (L-020916-02-0010, Target sequences: […] (SEQ ID NO: 81), […] (SEQ ID NO: 82), […] (SEQ ID NO: 83), […] (SEQ ID NO: 84)) and Non-targeting pool (D-001810-10-05) were from ThermoScientific. […]

mTORC1 [6] = experiment: cycloheximide-induced mTORC1 activation in HEK293T (immunoblot); assay type: cell-based, human; settings: shRNA, starved 50 min, cycloheximide 25 μg/ml 10 or 20 min, FIG. 4B
Procedure: as §3, with “After 72 h, cells were starved for 50 min in medium without amino acids and serum and then stimulated with amino acids and insulin (1 uM).” left out
[…]. HEK293T cells were co-transfected with packaging plasmids and the shRNA-encoding plasmids. Cells were washed 16 h after transfection. Virus-containing supernatants were collected 24 h after washing, filtered and used for infection. After infection, HEK293T cells were selected with puromycin (4 μg/ml). For siRNA-mediated knockdown, HEK293T cells were transfected with HiPerfect (Qiagen) with 60 nM of siRNA pool. After 72 h cells were subjected to amino acid stimulation as described. ON-TARGETplus SMARTpool against SLC38A9 (L-007337-02-0005, Target sequences: […] (SEQ ID NO: 77), […] (SEQ ID NO: 78), […] (SEQ ID NO: 79), […] (SEQ ID NO: 80)), LAMTOR1 (L-020916-02-0010, Target sequences: […] (SEQ ID NO: 81), […] (SEQ ID NO: 82), […] (SEQ ID NO: 83), […] (SEQ ID NO: 84)) and Non-targeting pool (D-001810-10-05) were from ThermoScientific.
HEK293T cells were washed with PBS and incubated in amino acid-free RPMI for 50 min Cell were then stimulated for 10 or 20 min by the addition of RPMI containing a two time concentrated solution of amino acids. […]

CNC(C)(C)C(=O)O [MeAIB, α-(methylamino)isobutyric acid]
competition for glutamine transport (inhibition of [3H]-glutamine uptake) [1]: had not effect

NC(=O)C[C@H](N)C(=O)O [[3H]asparagine, asparagine]
direct transport of [3H]-labelled amino acid by SLC38A9 [2]: competence

C[C@H](N)C(=O)O [alanine]
transport capacity of SLC38A9 for amino acids (transport preference) [1]: lowest transport capacity
binding capacity of SLC38A9 for amino acids (binding preference) [1]: lowest binding capacity

N=C(N)NCCC[C@H](N)C(=O)O [arginine]
competition for glutamine transport (inhibition of [3H]-glutamine uptake) [1]: low ability
direct transport of [3H]-labelled amino acid by SLC38A9 [2]: competence

N[C@@H](CS)C(=O)O [cysteine]
transport capacity of SLC38A9 for amino acids (transport preference) [1]: highest transport capacity
binding capacity of SLC38A9 for amino acids (binding preference) [1]: highest binding capacity

NC(=O)CC[C@H](N)C(=O)O [glutamine]
transport capacity of SLC38A9 for amino acids (transport preference) [1]: highest transport capacity
binding capacity of SLC38A9 for amino acids (binding preference) [1]: highest binding capacity
initial rate of glutamine transport (uptake) ([2]; 10 μM glutamine, time course, proteoliposomes, 25° C., pH 6.5): 0.42±0.10 nmol per mg of protein per minute
rate of [3H]-glutamine efflux from proteoliposomes ([2]; loaded with external 10 μM [3H]-glutamine for 120 min, FIG. 3E): 1.7 ± 0.30 nmol/min/mg

CCGGGCCUUGACAACAGUUCUAUAUCUCGAGAUAUAGAACUGUUGUCAAGGCUUUUUUG (chemistry not given here; listed as Homo sapiens) [shRNA, shRNA-encoding pLKO.1 targeting SLC38A9 (ThermoFisher), lentivirally delivered; targets nt 1931-1951 of human SLC38A9 mRNA]
cell size (HEK293T cells [3]): clear reduction
ability of the targeted cells to proliferate (HEK293T cells [4]): impairment
amino acid-induced mTORC1 activation (mTORC1 [5]): strong reduction
cycloheximide-induced mTORC1 activation (mTORC1 [6]): impaired
